Entries after “also recorded” stand apart in the source; their conditions may differ. Where only a bound is given, the exact number is not on record here.

One compound from patent US12642809B2, “Fucosylation and immune modulation in cancer” (H. LEE MOFFITT CANCER CENTER AND RESEARCH INSTITUTE, INC., priority 2019, dated 2026) can be followed below.

Assay [1] relates to SM1 tumors. Kind of assay: CD4+/CD8+ T cell immunodepletion, SM1 model. It is filed as in vivo, mouse. The following applies: CD4+ T cell-depleted mice. On the procedure: Single-cell suspensions from tumor and spleen tissue were stained with Live/Dead Zombie NIR (Biolegend, (San Diego, CA)) at 1:1,000 in PBS for 20 min. Cell suspensions were spun down and stained with the following antibodies: APC anti-mouse CD3 (0.5 μg/mL, BD Biosciences (San Jose, CA)), Pacific Blue anti-mouse CD4 ([…], BD Biosciences (San Jose, CA)), BV785 anti-mouse CD8 (0.5 μg/mL, BD Biosciences (San Jose, CA)), PerCP anti-mouse CD25 ([…], BD Biosciences (San Jose, CA)), FITC anti-mouse F4/80 (0.5 μg/mL, BD Biosciences (San Jose, CA)), PeCy7 anti-mouse CD11c (0.5 μg/mL, BD Biosciences (San Jose, CA)), PE anti-mouse NK1.1 (0.5 μg/mL, BD Biosciences (San Jose, CA)), PE anti-mouse DX5 (0.5 μg/mL, BD Biosciences (San Jose, CA)), PerCP-Cy5.5 anti-mouse CD11b (0.5 μg/mL, BD Biosciences (San Jose, CA)). After staining, the cells were washed and fixed (2% formaldehyde), followed by another wash and flow cytometric analysis. The compensation controls were prepared using 0.5 μg/ml. of each antibody with beads UltraComp eBeads™, (ThermoFisher Scientific (Waltham, MA)). […] Flow cytometric data was further analyzed using FlowJo™ analysis software (BD Biosciences (San Jose, CA)). TIL profiles were determined as a measure of TIL subpopulations per gram of tumor tissues or % of total splenocytes. […]

The subject of assay [2] is SW1 tumors. Kind of assay: H2K1/EB1 knockdown and EB1 fucomutant reconstitution SW1 tumor model. It counts as in vivo, mouse. As to conditions: for L-fuc-triggered tumor suppression: EB1 (IEβ) knockdown tumors (shEB1, shEB1+EV). The procedure: Single-cell suspensions from tumor and spleen tissue were stained with Live/Dead Zombie NIR (Biolegend, (San Diego, CA)) at 1:1,000 in PBS for 20 min. Cell suspensions were spun down and stained with the following antibodies: APC anti-mouse CD3 (0.5 μg/mL, BD Biosciences (San Jose, CA)), Pacific Blue anti-mouse CD4 ([…], BD Biosciences (San Jose, CA)), BV785 anti-mouse CD8 (0.5 μg/mL, BD Biosciences (San Jose, CA)), PerCP anti-mouse CD25 ([…], BD Biosciences (San Jose, CA)), FITC anti-mouse F4/80 (0.5 μg/mL, BD Biosciences (San Jose, CA)), PeCy7 anti-mouse CD11c (0.5 μg/mL, BD Biosciences (San Jose, CA)), PE anti-mouse NK1.1 (0.5 μg/mL, BD Biosciences (San Jose, CA)), PE anti-mouse DX5 (0.5 μg/mL, BD Biosciences (San Jose, CA)), PerCP-Cy5.5 anti-mouse CD11b (0.5 μg/mL, BD Biosciences (San Jose, CA)). After staining, the cells were washed and fixed (2% formaldehyde), followed by another wash and flow cytometric analysis. The compensation controls were prepared using 0.5 μg/ml. of each antibody with beads UltraComp eBeads™, (ThermoFisher Scientific (Waltham, MA)). All samples were subject to flow cytometric analysis using a LSR Flow Cytometer (BD Biosciences (San Jose, CA)). Flow cytometric data was further analyzed using FlowJo™ analysis software (BD Biosciences (San Jose, CA)). TIL profiles were determined as a measure of TIL subpopulations per gram of tumor tissues or % of total splenocytes.
SW1 mouse melanoma cells expressing either shNT (non-targeting shRNA), shH2K1, shEB1, shNT+EV, shEB1+EV, shEB1+EB1 WT, or shEB1+EB1 N46G were injected into syngeneic C3H/HeN female mice. After approximately 7 days, when the mice tumors reached ˜150 mm^3, the mice were either supplemented with or without 100 mM L-fucose (Biosynth (Oak Terrace, IL)) via drinking water, which was provided ad libitum. When the tumors reached ˜2 cm^3, the animals were sacrificed, and the tumors were either processed for flow cytometric profiling or for histological analysis as indicated

In assay [3] the test system is HLA-DRB1. Kind of assay: Flow cytometry of cell surface HLA-DRB1 in melanoma cells. It counts as cell-based, human. As to conditions: 250 μM, 72 h, panel of melanoma cell lines. The procedure:
Indicated cells were treated for 72 h with DMSO, 250 μM fucosyltransferase inhibitor (FUTi) (Millipore Sigma (St. Louis, MO)), or 250 μM of L-fucose (Biosynth (Oak Terrace, IL)). After 72 h, cells were stained with 0.1 μM PKH26 (Millipore Sigma (St. Louis, MO)) prior to fixation in 4% formaldehyde solution. The cells were stained with anti-HLA-DRB1 (rabbit anti-human HLA-DRB1 (0.2 μg/mL, ab92371, Abcam (Cambridge, UK)) and fluorescein AAL (0.2 μg/ml. Vector Labs (Burlingame, CA)), or anti-human or anti-mouse PD-L1 (Novus Biologicals (Centennial, CO) or Biolegend (San Diego, CA), respectively) overnight. The following day the cells were washed 3 times prior to adding AlexaFluor 594 donkey anti-rabbit (0.8 μg/mL, ThermoFisher Scientific (Waltham, MA)). Cells were washed 3 times and then subject to flow cytometric analyses using a FACSCalibur™ (BD Biosciences (San Jose, CA)). Samples were analyzed using FlowJo™ analysis software (BD Biosciences (San Jose, CA)). Median values of DRB1 and AAL were normalized to PKH26 values and statistical analysis was performed using GraphPad Prism™.
(In general: In flow cytometry, cells or beads pass a laser one at a time.)

The test system of assay [4] is PD-L1. The experiment in a line: Flow cytometry of cell surface PD-L1 in melanoma cells. It is filed as cell-based, human or mouse. As to conditions: 250 μM; WM793, SW1, SM1 cells. The text has this:
FIGS. 22A, 22B, 22C, 22D, 22E, and 22F show reduced cell surface class II MHC during anti-PD-1 failure; L-PLA schematic and the effects of L-fucose on tumoral PD-L1 expression and peripheral human CD4^+ T cell fucosylation and IFNγ production/secretion. […] We stained for (i) HLA-DRB1 using anti-HLA-DRB1 followed by (+) oligo-conjugated PLA secondary and (ii) fucosylated glycan using biotinylated (“B”) AAL lectin followed by anti-biotin followed by (−) oligo-conjugated PLA secondary. Ligated PLA oligos were subjected to rolling circle amplification PCR (RCA PCR), giving rise to fluorescent punctae. […] Healthy human donor peripheral CD4^+ T cells were treated with DMSO (D) and 250 μM FUTi (i) or L-fuc (L-f) and subjected to (22E) IB analysis for changes in fucosylation (AAL IB) or (22F) ELISA assay to measure changes in IFNγ production/secretion. *=p-value<0.05.
Indicated cells were treated for 72 h with DMSO, 250 μM fucosyltransferase inhibitor (FUTi) (Millipore Sigma (St. Louis, MO)), or 250 μM of L-fucose (Biosynth (Oak Terrace, IL)). After 72 h, cells were stained with 0.1 μM PKH26 (Millipore Sigma (St. Louis, MO)) prior to fixation in 4% formaldehyde solution. […]

Assay [5] has as its system human CD4+ T cells. The experiment in a line: CD3/CD28 human CD4+ T cell activation assay / IFNγ ELISA. It is filed as cell-based. The procedure:
Human CD4^+ T cells were isolated from fresh PBMC using a CD4^+ T cell negative selection isolation kit (Stem Cell Technologies, (Vancouver CA)) according to manufacturer's protocols. CD4^+ T cells were cultured in the presence of DMSO, 250 μM FUTi (Millapore Sigma (St. Louis, MO)), or 250 μM L-fucose 3 days prior to activation. After 3 days, the CD4^+ T cells were activated using anti-CD3/CD28 Dynabeads (ThermoFisher Scientific (Waltham, MA)) in a 1:1 bead: CD4^+ T cell ratio. After 24 h, supernatants were collected and IFNγ ELISA was performed according to manufacturer's protocols (Biolegend (San Diego, CA)).
(An ELISA detects its analyte on a solid surface through an enzyme-linked reagent.)

As to `C[C@H](O)[C@@H](O)[C@@H](O)[C@H](O)C=O` [L-fucose], in assay [1], the “L-fuc-triggered suppression of SM1 tumors and TIL increases” value was “abrogated”. Also, the L-fuc-triggered tumor suppression result is listed as “abrogates” in assay [2] and “completely abrogated” in assay [2] (listed as L-fuc). For the same compound, the reduced tumor growth in assay [2] (control knockdown (shNT / shNT+EV) tumors) is ~60%; in assay [2] (shEB1+WT tumors) it was > 60%. Further, the tumor suppression result in assay [2] (shEB1+N46G tumors) was “did not suppress”. For the same compound, in assay [2] (shEB1 tumors), the “L-fuc-triggered induction of total TIL counts and subpopulations” value is listed as “reduced; also recorded: abrogated”. Also, the “TIL induction by L-fuc” value in assay [2] (shEB1 tumors reconstituted with EB1 WT) is given as “restored”; in assay [2] (shEB1 tumors reconstituted with EV or EB1 N46G) it was “did not”. In addition, the “cell surface HLA-DRB1 relative to DMSO” value in assay [3] is reported as “promotes cell surface abundance; also recorded: increased”; in assay [3] (listed as L-fuc), “increased”. Moreover, the “cell surface PD-L1” value in assay [4] was “did not find that modulating fucosylation alters”. For the same compound, the “increase of CD4+ T cell activation (IFNγ production)” value in assay [5] (250 μM, 3 days before CD3/CD28 activation) is listed as ~37%. For the same compound, in assay [5] (FIG. 13), the “IFN-γ production relative to DMSO treated controls” value is reported as “increase”.
